This passage reports IC50 results from patent publication US20100003246A1, “Novel heterocyclic compounds and uses therof” (priority 2008, published 2010).

T1 sequence (P15056 whole entry V600E): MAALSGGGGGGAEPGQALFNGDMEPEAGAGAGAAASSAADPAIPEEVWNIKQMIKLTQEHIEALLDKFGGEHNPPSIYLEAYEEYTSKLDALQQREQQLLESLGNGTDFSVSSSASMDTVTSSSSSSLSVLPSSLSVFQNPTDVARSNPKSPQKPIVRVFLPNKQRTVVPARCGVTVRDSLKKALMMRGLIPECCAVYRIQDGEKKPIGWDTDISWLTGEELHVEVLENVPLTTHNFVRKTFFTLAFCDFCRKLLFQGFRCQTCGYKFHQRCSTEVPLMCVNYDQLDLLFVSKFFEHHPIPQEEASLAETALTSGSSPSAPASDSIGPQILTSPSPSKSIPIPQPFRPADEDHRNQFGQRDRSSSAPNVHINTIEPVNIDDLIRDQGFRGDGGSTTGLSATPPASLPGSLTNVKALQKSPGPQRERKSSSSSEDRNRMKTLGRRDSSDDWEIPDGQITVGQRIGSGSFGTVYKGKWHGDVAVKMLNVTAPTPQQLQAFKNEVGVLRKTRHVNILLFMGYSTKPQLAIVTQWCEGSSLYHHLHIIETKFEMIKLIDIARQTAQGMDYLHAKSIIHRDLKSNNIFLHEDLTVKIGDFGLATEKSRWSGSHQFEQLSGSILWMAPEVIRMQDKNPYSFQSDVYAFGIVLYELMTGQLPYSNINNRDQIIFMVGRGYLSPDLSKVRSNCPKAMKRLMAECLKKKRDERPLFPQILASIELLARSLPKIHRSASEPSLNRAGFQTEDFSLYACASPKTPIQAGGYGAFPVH

The experiment concerns the target T1, b-Raf(V600E) (Homo sapiens, UniProt P15056, V600E).
T1 construct: made in house
The experiment can be described thus: Raf/Mek Amplified Luminescence Proximity Homogeneous Assay (Alpha Screen), b-Raf(V600E). The class given is biochemical. The following applies: mutant b-Raf(V600E), read-out: mut-b-RAF (IC50 in uM). In a few lines:
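IC50 derived by non-linear regression from AlphaScreen luminescence of phospho-MEK (anti-p-MEK antibody). Reaction: ~4 pM b-Raf(V600E), ~10 nM kinase-dead biotinylated Mek, 60 min compound pre-incubation, then 3 h with ATP at room temperature in pH 7.5 Tris/MgCl2/DTT buffer, quenched with EDTA.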
For `COc1cc(-c2nc(C(C)(C)C)[nH]c2-c2ccnc(NCC(F)(F)F)n2)cnc1N` [Compound 213, 4-(4-(6-amino-5-methoxypyridin-3-yl)-2-tert-butyl-1H-imidazol-5-yl)-N-(2,2,2-trifluoroethyl)pyrimidin-2-amine], the IC50 (commonly the concentration that gives 50% inhibition) was 0.0001 µM.

Regarding `COc1cc(-c2[nH]c(-c3ccc(C)cc3F)nc2-c2ccncc2)cnc1N` [Compound 145, 5-(2-(2-fluoro-4-methylphenyl)-4-(pyridin-4-yl)-1H-imidazol-5-yl)-3-methoxypyridin-2-amine], the 50% inhibitory concentration (IC50) was 0.0009 µM.

In the case of `COc1nc(-c2nc(C(C)(C)C)[nH]c2-c2ccnc(NC[C@H](C)NC(=O)[C@H](C)OC)n2)cnc1N` [Compound 242, (S)-N-((S)-1-(4-(4-(5-amino-6-methoxypyrazin-2-yl)-2-tert-butyl-1H-imidazol-5-yl)pyrimidin-2-ylamino)propan-2-yl)-2-methoxypropanamide], the IC50 is 0.0002 µM. As for `COc1cc(Nc2nccc(-c3[nH]c(C(C)(C)C)nc3-c3cnc(N)c(OC)c3)n2)ccn1` [Compound 230, 4-(4-(6-amino-5-methoxypyridin-3-yl)-2-tert-butyl-1H-imidazol-5-yl)-N-(2-methoxypyridin-4-yl)pyrimidin-2-amine], the 50% inhibitory concentration (IC50) turned out to be 0.0001 µM.

On to `CCNc1nccc(-c2[nH]c(C(C)(C)C)nc2-c2cnc(N)c(OC)c2)n1` [Compound 211, 4-(4-(6-amino-5-methoxypyridin-3-yl)-2-tert-butyl-1H-imidazol-5-yl)-N-ethylpyrimidin-2-amine], for which the IC50 is 0.0001 µM. As for `COc1cc(-c2[nH]c(-c3cccc(S(N)(=O)=O)c3)nc2-c2ccncc2)cnc1N` [Compound 132, 3-(5-(6-amino-5-methoxypyridin-3-yl)-4-(pyridin-4-yl)-1H-imidazol-2-yl)benzenesulfonamide], the 50% inhibitory concentration (IC50) stood at 0.001 µM. As for `Nc1cc(-c2[nH]c(-c3ccccc3)nc2-c2ccncc2)ccn1` [Compound 27, 4-(2-phenyl-4-(pyridin-4-yl)-1H-imidazol-5-yl)pyridin-2-amine], the 50% inhibitory concentration (IC50) was found to be 0.417 µM. For `COc1cc(-c2[nH]c(-c3cccc(OC)c3F)nc2-c2ccncc2)cnc1N` [Compound 116, 5-(2-(2-fluoro-3-methoxyphenyl)-4-(pyridin-4-yl)-1H-imidazol-5-yl)-3-methoxypyridin-2-amine], the half-inhibitory concentration (IC50) was 0.0017 µM. Turning to `COCC(=O)N[C@@H](C)CNc1nccc(-c2[nH]c(C(C)(C)C)nc2-c2cnc(N)c(OC)n2)n1` [Example 7, (S)—N-(1-(4-(4-(5-amino-6-methoxypyrazin-2-yl)-2-tert-butyl-1H-imidazol-5-yl)pyrimidin-2-ylamino)propan-2-yl)-2-methoxyacetamide], the IC50 was 0.0003 µM. As to `COCC(=O)N[C@@H](C)CNc1nccc(-c2[nH]c(C3CC3)nc2-c2nc(OC)c(N)nc2C)n1` [Compound 255, (S)-N-(1-(4-(4-(5-amino-6-methoxy-3-methylpyrazin-2-yl)-2-cyclopropyl-1H-imidazol-5-yl)pyrimidin-2-ylamino)propan-2-yl)-2-methoxyacetamide], the 50% inhibitory concentration (IC50) was 0.0039 µM. On to `COc1cc(-c2[nH]c(-c3ccccc3)nc2-c2ccnc(N[C@@H]3CCCNC3)n2)cnc1N` [Compound 65, (R)-4-(5-(6-amino-5-methoxypyridin-3-yl)-2-phenyl-1H-imidazol-4-yl)-N-(piperidin-3-yl)pyrimidin-2-amine], for which the half-inhibitory concentration (IC50) stood at 0.0599 µM.

Turning to `COc1cc(N)ncc1-c1[nH]c(-c2ccccc2)nc1-c1ccncc1` [Compound 40, 4-methoxy-5-(2-phenyl-4-(pyridin-4-yl)-1H-imidazol-5-yl)pyridin-2-amine], the half-inhibitory concentration (IC50) was determined as 0.502 µM.

As to `COc1cc(-c2nc(-c3ccc(F)cc3)[nH]c2-c2ccnc(F)c2)cnc1N` [Compound 111, 5-(2-(4-fluorophenyl)-5-(2-fluoropyridin-4-yl)-1H-imidazol-4-yl)-3-methoxypyridin-2-amine], the IC50 was determined as 0.0292 µM. Turning to `COc1nc(-c2nc(C(C)(C)C)[nH]c2-c2ccnc(NC[C@H](C)NC(=O)OCC(C)C)n2)c(C)nc1N` [Compound 258, (S)-isobutyl 1-(4-(4-(5-amino-6-methoxy-3-methylpyrazin-2-yl)-2-tert-butyl-1H-imidazol-5-yl)pyrimidin-2-ylamino)propan-2-ylcarbamate], the IC50 stood at 0.0011 µM. Take `Nc1ccc(-c2[nH]c(-c3ccccc3)nc2-c2ccncc2)cn1` [Compound 29, 5-(2-phenyl-4-(pyridin-4-yl)-1H-imidazol-5-yl)pyridin-2-amine]: the IC50 was found to be 0.26 µM. On to `COc1cc(-c2nc(C3=CCNCC3)[nH]c2-c2ccncc2)cnc1N` [Compound 155, 3-methoxy-5-(5-(pyridin-4-yl)-2-(1,2,3,6-tetrahydropyridin-4-yl)-1H-imidazol-4-yl)pyridin-2-amine], for which the half-inhibitory concentration (IC50) turned out to be 0.0162 µM.

For `COc1cc(-c2oc(-c3ccccc3)nc2-c2ccncc2)cnc1N` [Compound 89, 3-methoxy-5-(2-phenyl-4-(pyridin-4-yl)oxazol-5-yl)pyridin-2-amine], the IC50 amounted to 0.0137 µM. Regarding `COc1cc(-c2nc(-c3ccccc3)[nH]c2-c2ccnc(NC[C@H](C)O)n2)cnc1N` [Compound 74, (S)-1-(4-(4-(6-amino-5-methoxypyridin-3-yl)-2-phenyl-1H-imidazol-5-yl)pyrimidin-2-ylamino)propan-2-ol], the IC50 came to 0.0006 µM.

Take `CNC(=O)N[C@@H](C)CNc1nccc(-c2[nH]c(C(C)(C)C)nc2-c2cnc(N)c(OC)c2)n1` [Compound 219, (S)-1-(1-(4-(4-(6-amino-5-methoxypyridin-3-yl)-2-tert-butyl-1H-imidazol-5-yl)pyrimidin-2-ylamino)propan-2-yl)-3-methylurea]: the IC50 was 0.0003 µM. Turning to `c1ccc(-c2nc(-c3ccncc3)c(-c3cnc4[nH]ncc4c3)[nH]2)cc1` [Compound 49, 5-(2-phenyl-4-(pyridin-4-yl)-1H-imidazol-5-yl)-1H-pyrazolo[3,4-b]pyridine], the IC50 was 0.0222 µM. As to `COCC(=O)NCCNc1nccc(-c2nc(-c3ccccc3)[nH]c2-c2cnc(N)c(OC)c2)n1` [Compound 68, N-(2-(4-(5-(6-amino-5-methoxypyridin-3-yl)-2-phenyl-1H-imidazol-4-yl)pyrimidin-2-ylamino)ethyl)-2-methoxyacetamide], the IC50 stood at 0.0001 µM.

For `COc1cc(-c2[nH]c(-c3ccc(OCCN(C)C)cc3)nc2-c2ccncc2)cnc1N` [Compound 114], the half-maximal inhibitory concentration (IC50) was determined as 0.0064 µM. As to `c1ccc(-c2nc(-c3ccncc3)c(-c3ccsc3)[nH]2)cc1` [Compound 57, 4-(2-phenyl-5-(thiophen-3-yl)-1H-imidazol-4-yl)pyridine], the IC50 was 0.62 µM. In the case of `COc1cc(-c2[nH]c(-c3ccc(F)cc3)nc2-c2ccoc2)cnc1N` [Compound 134, 5-(2-(4-fluorophenyl)-4-(furan-3-yl)-1H-imidazol-5-yl)-3-methoxypyridin-2-amine], the concentration for half-maximal inhibition (IC50) was found to be 0.0014 µM. Regarding `COc1nc(-c2nc(C(C)(C)C)[nH]c2-c2ccnc(NC[C@H](C)NC(=O)OCC(C)(C)C)n2)c(C)nc1N` [Compound 259, (S)-neopentyl 1-(4-(4-(5-amino-6-methoxy-3-methylpyrazin-2-yl)-2-tert-butyl-1H-imidazol-5-yl)pyrimidin-2-ylamino)propan-2-ylcarbamate], the concentration for half-maximal inhibition (IC50) turned out to be 0.0015 µM.
